Laboratory results published in patent US9834550B2, “Pyridopyrimidinone compounds for modulating the catalytic activity of histone lysine demethylases (KDMs)” (Dong-A Socio Holdings Co., Ltd., priority 2014, dated 2017).

These compounds were tested against T1, Recombinant human JARID1B/KDM5B (Homo sapiens, UniProt Q9UGL1) (assay: LANCE Ultra TR-FRET demethylase assay with FLAG-tagged JARID1B). Conditions: 100 nM compound; 500 nM biotinylated H3K4me3 peptide substrate.
T1 construct: purchased Active Motif 31432; host or cells: Sf9 insect cells
T1 sequence (Q9UGL1 whole entry): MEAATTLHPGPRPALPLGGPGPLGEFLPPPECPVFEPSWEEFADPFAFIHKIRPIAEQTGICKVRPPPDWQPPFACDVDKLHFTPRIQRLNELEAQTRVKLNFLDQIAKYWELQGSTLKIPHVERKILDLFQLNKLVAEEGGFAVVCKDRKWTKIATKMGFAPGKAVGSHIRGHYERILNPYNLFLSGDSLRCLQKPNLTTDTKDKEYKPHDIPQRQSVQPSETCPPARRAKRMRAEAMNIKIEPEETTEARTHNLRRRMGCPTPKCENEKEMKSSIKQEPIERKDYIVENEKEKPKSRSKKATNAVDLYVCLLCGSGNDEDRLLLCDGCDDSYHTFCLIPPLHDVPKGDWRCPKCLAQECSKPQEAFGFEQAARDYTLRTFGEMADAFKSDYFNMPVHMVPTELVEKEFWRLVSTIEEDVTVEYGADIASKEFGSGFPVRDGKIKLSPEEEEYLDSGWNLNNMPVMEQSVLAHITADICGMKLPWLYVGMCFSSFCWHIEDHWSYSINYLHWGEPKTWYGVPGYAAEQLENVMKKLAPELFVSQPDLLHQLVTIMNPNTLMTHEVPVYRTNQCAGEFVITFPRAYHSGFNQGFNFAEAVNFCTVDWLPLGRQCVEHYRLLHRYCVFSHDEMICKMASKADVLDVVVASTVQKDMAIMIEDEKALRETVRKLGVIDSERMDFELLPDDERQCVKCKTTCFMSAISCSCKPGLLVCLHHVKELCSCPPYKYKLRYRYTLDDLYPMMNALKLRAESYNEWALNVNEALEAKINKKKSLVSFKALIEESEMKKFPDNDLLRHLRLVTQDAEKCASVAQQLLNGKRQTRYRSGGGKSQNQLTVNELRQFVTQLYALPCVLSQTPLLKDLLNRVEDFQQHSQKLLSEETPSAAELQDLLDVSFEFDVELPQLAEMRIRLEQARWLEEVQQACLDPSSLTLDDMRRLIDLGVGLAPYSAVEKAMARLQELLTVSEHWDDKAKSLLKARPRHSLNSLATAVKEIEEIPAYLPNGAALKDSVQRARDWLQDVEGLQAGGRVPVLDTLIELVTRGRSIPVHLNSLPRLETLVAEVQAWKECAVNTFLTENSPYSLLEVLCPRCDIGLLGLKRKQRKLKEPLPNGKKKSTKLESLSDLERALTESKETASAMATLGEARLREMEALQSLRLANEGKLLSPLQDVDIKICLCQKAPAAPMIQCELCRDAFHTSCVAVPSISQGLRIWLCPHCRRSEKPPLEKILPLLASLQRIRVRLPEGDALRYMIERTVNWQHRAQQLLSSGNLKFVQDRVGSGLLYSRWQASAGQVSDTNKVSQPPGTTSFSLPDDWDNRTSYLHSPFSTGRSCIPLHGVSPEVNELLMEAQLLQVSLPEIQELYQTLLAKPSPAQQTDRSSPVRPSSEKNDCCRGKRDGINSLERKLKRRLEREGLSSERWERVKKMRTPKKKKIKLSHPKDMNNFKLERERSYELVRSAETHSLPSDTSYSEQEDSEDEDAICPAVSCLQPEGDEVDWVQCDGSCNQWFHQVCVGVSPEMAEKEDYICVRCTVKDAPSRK
Assay type: biochemical
Summary of the method: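 Sf9-expressed N-FLAG full-length JARID1B (10–30 nM) preincubated 5 min with compound at 20, 1 or 0.1 uM (1% DMSO), then 500 nM biotin-H3K4me3 peptide, 500 uM 2-OG, 25 uM Fe(II), 2 mM ascorbate added; 30 min at room temperature in Hepes pH 7.5. H3K4me2/1 product read by TR-FRET 665/590 ratio.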
`Cc1cc(C)n(CCNCc2nccc3c(=O)[nH]c(COc4ccc(F)c(Cl)c4)nc23)n1` [Example 183, 2-((3-chloro-4-fluorophenoxy)methyl)-8-(((2-(3,5-dimethyl-1H-pyrazol-1-yl)ethyl)amino)methyl)pyrido[3,4-d]pyrimidin-4(3H)-one] was tested, and the inhibition at 0.1 µM was < 20%. With `CNC1CCN(C(=O)CNCc2nccc3c(=O)[nH]c(COc4ccc(F)c(Cl)c4)nc23)C1` (stereo not drawn) [Example 238, 2-((3-chloro-4-fluorophenoxy)methyl)-8-(((2-(3-(methylamino)pyrrolidin-1-yl)-2-oxoethyl)amino)methyl)pyrido[3,4-d]pyrimidin-4(3H)-one] the inhibition at 0.1 µM was > 50%. With `O=C(CNCc1nccc2c(=O)[nH]c(COc3ccc(F)c(Cl)c3)nc12)N[C@H]1CCCNC1` [Example 231, (S)-2-(((2-((3-chloro-4-fluorophenoxy)methyl)-4-oxo-3,4-dihydropyrido[3,4-d]pyrimidin-8-yl)methyl)amino)-N-(piperidin-3-yl)acetamide] the inhibition at 0.1 µM was > 50%. `CCCCN(CC)C(=O)CNCc1nccc2c(=O)[nH]c(COc3ccc(F)c(Cl)c3)nc12` [Example 222, N-butyl-2-(((2-((3-chloro-4-fluorophenoxy)methyl)-4-oxo-3,4-dihydropyrido[3,4-d]pyrimidin-8-yl)methyl)amino)-N-ethylacetamide] showed an inhibition at 0.1 µM of 20 to 50%. `CCCOC1CCN(Cc2cccc(OCc3nc4cnccc4c(=O)[nH]3)c2)CC1` [Example 43, 2-((3-((4-propoxypiperidin-1-yl)methyl)phenoxy)methyl)pyrido[3,4-d]pyrimidin-4(3H)-one] was tested, and the inhibition at 0.1 µM was 20 to 50%. Compound `O=c1[nH]cnc2c(CNCC3CCN(Cc4ccccc4)CC3)nccc12` [Example 96, 8-((((1-benzylpiperidin-4-yl)methyl)amino)methyl)pyrido[3,4-d]pyrimidin-4(3H)-one] has an inhibition at 0.1 µM of 20 to 50%. In the case of `Cc1cc(CNCc2nccc3c(=O)[nH]c(COc4ccc(F)c(Cl)c4)nc23)on1` [Example 177, 2-((3-chloro-4-fluorophenoxy)methyl)-8-((((3-methylisoxazol-5-yl)methyl)amino)methyl)pyrido[3,4-d]pyrimidin-4(3H)-one], the inhibition at 0.1 µM is reported as 20 to 50%. `CN1CCC(CNCc2nccc3c(=O)[nH]c(COCc4ccccc4)nc23)C1` (stereo not drawn) [Example 205, 2-((benzyloxy)methyl)-8-((((1-methylpyrrolidin-3-yl)methyl)amino)methyl)pyrido[3,4-d]pyrimidin-4(3H)-one] gave an inhibition at 0.1 µM of 20 to 50%. In the case of `O=C(CNCc1nccc2c(=O)[nH]c(COc3ccc(F)c(Cl)c3)nc12)NC1CCN(Cc2ccccc2)C1` (stereo not drawn) [Example 232, N-(1-benzylpyrrolidin-3-yl)-2-(((2-((3-chloro-4-fluorophenoxy)methyl)-4-oxo-3,4-dihydropyrido[3,4-d]pyrimidin-8-yl)methyl)amino)acetamide], the inhibition at 0.1 µM is reported as > 50%. In the case of `O=c1[nH]c(COc2ccc(F)c(Cl)c2)nc2c(CNCc3ccco3)nccc12` [Example 171, 2-((3-chloro-4-fluorophenoxy)methyl)-8-(((furan-2-ylmethyl)amino)methyl)pyrido[3,4-d]pyrimidin-4(3H)-one], the inhibition at 0.1 µM is reported as 20 to 50%. `CN1CCC(CNCc2nccc3c(=O)[nH]cnc23)CC1` [Example 95, 8-((((1-methylpiperidin-4-yl)methyl)amino)methyl)pyrido[3,4-d]pyrimidin-4(3H)-one] showed an inhibition at 0.1 µM of 20 to 50%. For `N[C@@H]1CCN(C(=O)CNCc2nccc3c(=O)[nH]c(COc4ccc(F)c(Cl)c4)nc23)C1` [Example 228, (R)-8-(((2-(3-aminopyrrolidin-1-yl)-2-oxoethyl)amino)methyl)-2-((3-chloro-4-fluorophenoxy)methyl)pyrido[3,4-d]pyrimidin-4(3H)-one], the inhibition at 0.1 µM was > 50%. With `O=c1[nH]c(COc2ccc(Cc3ccccc3)cc2)nc2c(CNCC3CNC3)nccc12` [Example 147, 8-(((azetidin-3-ylmethyl)amino)methyl)-2-((4-benzylphenoxy)methyl)pyrido[3,4-d]pyrimidin-4(3H)-one] the inhibition at 0.1 µM was > 50%. With `C[C@@H](Oc1ccc(Cc2ccccc2)cc1)c1nc2c(CNCC3CCN(C)CC3)nccc2c(=O)[nH]1` [Example 216, (R)-2-(1-(4-benzylphenoxy)ethyl)-8-((((1-methylpiperidin-4-yl)methyl)amino)methyl)pyrido[3,4-d]pyrimidin-4(3H)-one] the inhibition at 0.1 µM was > 50%. With `CN1CCC(CNCc2nccc3c(=O)[nH]c(C4CCCC4)nc23)CC1` [Example 192, 2-cyclopentyl-8-((((1-methylpiperidin-4-yl)methyl)amino)methyl)pyrido[3,4-d]pyrimidin-4(3H)-one] the inhibition at 0.1 µM was < 20%. Work on `C[C@@H](Oc1ccc(F)c(Cl)c1)c1nc2c(CNCC3CCN(C)CC3)nccc2c(=O)[nH]1` [Example 218, (R)-2-(1-(3-chloro-4-fluorophenoxy)ethyl)-8-((((1-methylpiperidin-4-yl)methyl)amino)methyl)pyrido[3,4-d]pyrimidin-4(3H)-one] yielded an inhibition at 0.1 µM of 20 to 50%. For `O=c1[nH]c(COc2ccc(F)c(Cl)c2)nc2c(CNC[C@@H]3CNCCO3)nccc12` [Example 187, (R)-2-((3-chloro-4-fluorophenoxy)methyl)-8-(((morpholin-2-ylmethyl)amino)methyl)pyrido[3,4-d]pyrimidin-4(3H)-one], the inhibition at 0.1 µM was > 50%. `Cc1ccc(Cl)c(OCc2nc3c(CNCC4CCNCC4)nccc3c(=O)[nH]2)c1` [Example 130, 2-((2-chloro-5-methylphenoxy)methyl)-8-(((piperidin-4-ylmethyl)amino)methyl)pyrido[3,4-d]pyrimidin-4(3H)-one] was tested, and the inhibition at 0.1 µM was > 50%. With `O=c1[nH]c(COc2ccc(F)c(Cl)c2)nc2c(CNCC3CCNCC3)nccc12` [Example 126, 2-((3-chloro-4-fluorophenoxy)methyl)-8-(((piperidin-4-ylmethyl)amino)methyl)pyrido[3,4-d]pyrimidin-4(3H)-one] the inhibition at 0.1 µM was > 50%. For `CN1CCC(CNCc2nccc3c(=O)[nH]c(COCc4ccccc4)nc23)CC1` [Example 203, 2-((benzyloxy)methyl)-8-((((1-methylpiperidin-4-yl)methyl)amino)methyl)pyrido[3,4-d]pyrimidin-4(3H)-one], the inhibition at 0.1 µM was > 50%. With `O=c1[nH]c(COCc2cccc(Cl)c2)nc2c(CNC[C@H]3CCNC3)nccc12` [Example 208, (S)-2-(((3-chlorobenzyl)oxy)methyl)-8-(((pyrrolidin-3-ylmethyl)amino)methyl)pyrido[3,4-d]pyrimidin-4(3H)-one] the inhibition at 0.1 µM was > 50%. `O=c1[nH]c(COc2ccc(F)c(Cl)c2)nc2c(CNCc3ncccn3)nccc12` [Example 180, 2-((3-chloro-4-fluorophenoxy)methyl)-8-(((pyrimidin-2-ylmethyl)amino)methyl)pyrido[3,4-d]pyrimidin-4(3H)-one] gave an inhibition at 0.1 µM of 20 to 50%. In the case of `O=c1[nH]c(COc2ccc(F)c(Cl)c2)nc2c(CNCC3CCCOC3)nccc12` (stereo not drawn) [Example 162, 2-((3-chloro-4-fluorophenoxy)methyl)-8-((((tetrahydro-2H-pyran-3-yl)methyl)amino)methyl)pyrido[3,4-d]pyrimidin-4(3H)-one], the inhibition at 0.1 µM is reported as < 20%. In the case of `COCCN1CCC(CNCc2nccc3c(=O)[nH]c(COc4ccc(F)c(Cl)c4)nc23)CC1` [Example 189, 2-((3-chloro-4-fluorophenoxy)methyl)-8-((((1-(2-methoxyethyl)piperidin-4-yl)methyl)amino)methyl)pyrido[3,4-d]pyrimidin-4(3H)-one], the inhibition at 0.1 µM is reported as > 50%. For `Cc1nccn1CCNCc1nccc2c(=O)[nH]c(COc3ccc(F)c(Cl)c3)nc12` [Example 175, 2-((3-chloro-4-fluorophenoxy)methyl)-8-(((2-(2-methyl-1H-imidazol-1-yl)ethyl)amino)methyl)pyrido[3,4-d]pyrimidin-4(3H)-one], the inhibition at 0.1 µM was 20 to 50%. Compound `O=c1[nH]c(COc2ccccc2F)nc2c(CNCC3CCNCC3)nccc12` [Example 116, 2-((2-fluorophenoxy)methyl)-8-(((piperidin-4-ylmethyl)amino)methyl)pyrido[3,4-d]pyrimidin-4(3H)-one] has an inhibition at 0.1 µM of 20 to 50%. For `O=c1[nH]cnc2c(CNCC3CCCCC3)nccc12` [Example 85, 8-(((cyclohexylmethyl)amino)methyl)pyrido[3,4-d]pyrimidin-4(3H)-one], the inhibition at 0.1 µM was < 20%. With `O=C(CNCc1nccc2c(=O)[nH]c(COc3ccc(F)c(Cl)c3)nc12)N1CCC(N2CCOCC2)C1` (stereo not drawn) [Example 235, 2-((3-chloro-4-fluorophenoxy)methyl)-8-(((2-(3-morpholinopyrrolidin-1-yl)-2-oxoethyl)amino)methyl)pyrido[3,4-d]pyrimidin-4(3H)-one] the inhibition at 0.1 µM was 20 to 50%. Work on `O=c1[nH]c(COc2ccc(F)c(Cl)c2)nc2c(CNCc3cccs3)nccc12` [Example 181, 2-((3-chloro-4-fluorophenoxy)methyl)-8-(((thiophen-2-ylmethyl)amino)methyl)pyrido[3,4-d]pyrimidin-4(3H)-one] yielded an inhibition at 0.1 µM of 20 to 50%. With `CCN(CCN(C)C)C(=O)CNCc1nccc2c(=O)[nH]c(COc3ccc(F)c(Cl)c3)nc12` [Example 221, 2-(((2-((3-chloro-4-fluorophenoxy)methyl)-4-oxo-3,4-dihydropyrido[3,4-d]pyrimidin-8-yl)methyl)amino)-N-(2-(dimethylamino)ethyl)-N-ethylacetamide] the inhibition at 0.1 µM was > 50%. In the case of `O=C1CCCN1CCCNCc1nccc2c(=O)[nH]cnc12` [Example 88, 8-(((3-(2-oxopyrrolidin-1-yl)propyl)amino)methyl)pyrido[3,4-d]pyrimidin-4(3H)-one], the inhibition at 0.1 µM is reported as < 20%. Work on `O=c1[nH]cnc2c(CNCC3CCNCC3)nccc12` [Example 93, 8-(((piperidin-4-ylmethyl)amino)methyl)pyrido[3,4-d]pyrimidin-4(3H)-one] yielded an inhibition at 0.1 µM of 20 to 50%. In the case of `O=c1[nH]c(COc2ccc(Cc3ccccc3)cc2)nc2c(CNCC3CCOCC3)nccc12` [Example 149, 2-((4-benzylphenoxy)methyl)-8-((((tetrahydro-2H-pyran-4-yl)methyl)amino)methyl)pyrido[3,4-d]pyrimidin-4(3H)-one], the inhibition at 0.1 µM is reported as > 50%.
